pEC50: −log10 of the molar value. Marks after values point to notes of the source that are not given here.
Assays:
Format in all cases: cell-based
[1] = target: T1, CB2 D351A/D354A/D356A/D359A (Homo sapiens, UniProt P34972, D351A/D354A/D356A/D359A/Q63R); assay: G protein dissociation BRET assay, CB2 D351A/D354A/D356A/D359A; details: HEK 293 cells
CB2 D356A/D359A [2] = target: T2, CB2 D356A/D359A (Homo sapiens, UniProt P34972, D356A/D359A/Q63R); assay: G protein dissociation BRET assay, CB2 D356A/D359A
T2 sequence (P34972 whole entry Q63R/D356A/D359A): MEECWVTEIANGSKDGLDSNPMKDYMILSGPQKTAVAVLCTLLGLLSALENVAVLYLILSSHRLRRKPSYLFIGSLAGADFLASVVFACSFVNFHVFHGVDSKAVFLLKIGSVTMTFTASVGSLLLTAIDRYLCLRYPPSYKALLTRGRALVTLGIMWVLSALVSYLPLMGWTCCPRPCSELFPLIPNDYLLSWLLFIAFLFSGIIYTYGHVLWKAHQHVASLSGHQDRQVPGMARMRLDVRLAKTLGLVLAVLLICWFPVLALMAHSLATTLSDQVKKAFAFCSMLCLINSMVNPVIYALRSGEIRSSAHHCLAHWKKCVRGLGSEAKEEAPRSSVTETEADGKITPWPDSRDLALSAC

CB2 [3] = target: T3, CB2 (Homo sapiens, UniProt P34972, Q63R); assay: β-arrestin 1 translocation real-time BRET assay; details: HEK 293 cells
T3 sequence (P34972 whole entry Q63R): as the sequence (P34972 whole entry Q63R/D356A/D359A) above, with A356D, A359D counted along it

CB2 D356A/D359A [4] = target: T2, CB2 D356A/D359A; assay: β-arrestin 2 translocation BRET assay, CB2 D356A/D359A mutant; details: for Span, β-arrestin 2 translocation, CB2 D356A/D359A: HEK 293 cells
Wild-type CB2 = Wild-type CB2 (Homo sapiens, UniProt P34972, Q63R); assay: G protein dissociation BRET assay, wild-type CB2
Sequence of Wild-type CB2 (P34972 whole entry Q63R): as the sequence (P34972 whole entry Q63R/D356A/D359A) above, with A356D, A359D counted along it

CB2 [5] = target: T3, CB2; assay: β-arrestin 2 translocation real-time BRET assay, wild-type CB2; details: for Span, β-arrestin 2 translocation to CB2 / Span, β-arrestin 2 translocation, wild-type CB2: HEK 293 cells; for lowering of efficacy of β-arrestin 2 translocation by GRK coexpression: coexpression of GRK2, GRK3 and GRK5 versus mock
[6] = target: T1, CB2 D351A/D354A/D356A/D359A; assay: β-arrestin 2 translocation BRET assay, CB2 D351A/D354A/D356A/D359A mutant; details: for Span, β-arrestin 2 translocation, CB2 D351A/D354A/D356A/D359A: HEK 293 cells
CB2 D351A/D354A [7] = target: T4, CB2 D351A/D354A (Homo sapiens, UniProt P34972, D351A/D354A/Q63R); assay: G protein dissociation BRET assay, CB2 D351A/D354A
T4 sequence (P34972 whole entry Q63R/D351A/D354A): as the sequence (P34972 whole entry Q63R/D356A/D359A) above, with D351A, D354A, A356D, A359D counted along it

CB2 D351A/D354A [8] = target: T4, CB2 D351A/D354A; assay: β-arrestin 2 translocation BRET assay, CB2 D351A/D354A mutant; details: for Span, β-arrestin 2 translocation, CB2 D351A/D354A: HEK 293 cells
CB2 [9] = target: T3, CB2; assay: β-arrestin 1 translocation real-time BRET assay; details: pEC50, β-arrestin 1 translocation to CB2, HEK 293 cells
CB2 [10] = target: T3, CB2; assay: β-arrestin 2 translocation real-time BRET assay, wild-type CB2; details: pEC50, β-arrestin 2 translocation to CB2, HEK 293 cells, mock (no GRK), Table 2

T1 sequence (P34972 whole entry Q63R/D351A/D354A/D356A/D359A): as the sequence (P34972 whole entry Q63R/D356A/D359A) above, with D351A, D354A counted along it

CCCCCCC(C)(C)c1ccc([C@@H]2C[C@H](O)CC[C@H]2CCCO)c(O)c1 [CP55940]
G protein dissociation at 1 μM CP55940 ([1]; + GRK3): −267.49 (4.62)^ⱡ ΔBRET.s
G protein dissociation at 1 μM CP55940 ([1]; + β-arrestin 2): −165.31 (10.19)^◊ ΔBRET.s
G protein dissociation at 1 μM CP55940, % mock ([1]; + β-arrestin 2): 67.29 (4.02)^◊ % mock
G protein dissociation at 1 μM CP55940 ([1]; + β-arrestin 2 + GRK3): −155.77 (3.82)^◊ ΔBRET.s
Span, G protein dissociation ([1]; mock): −246.10 (6.75) ^* ΔBRET.s
attenuation of G protein dissociation by addition of β-arrestin 2 (CB2 D356A/D359A [2]; 1-μM CP55940): over 50%
G protein dissociation at 1 μM CP55940 (CB2 D356A/D359A [2]; HEK 293 cells, + β-arrestin 2): −91.91 (4.94) ΔBRET.s
G protein dissociation at 1 μM CP55940, % mock (CB2 D356A/D359A [2]; HEK 293 cells, + β-arrestin 2): 49.37 (2.63) % mock
Span, G protein dissociation (CB2 D356A/D359A [2]; HEK 293 cells, mock): −186.32 (4.70) ^* ΔBRET.s
Span, β-arrestin 1 translocation to CB2 (CB2 [3]; coexpression of GRK1): 86.32 (2.74) ^* ΔBRET.s
Span, β-arrestin 1 translocation to CB2 (CB2 [3]; coexpression of GRK2): 79.90 (3.34) ^* ΔBRET.s
Span, β-arrestin 1 translocation to CB2 (CB2 [3]; coexpression of GRK3): 79.51 (2.33) ^* ΔBRET.s
Span, β-arrestin 1 translocation to CB2 (CB2 [3]; coexpression of GRK4): 64.47 (1.90) ΔBRET.s
Span, β-arrestin 1 translocation to CB2 (CB2 [3]; coexpression of GRK5): 70.53 (2.52) ΔBRET.s
Span, β-arrestin 1 translocation to CB2 (CB2 [3]; coexpression of GRK6): 66.73 (3.12) ΔBRET.s
Span, β-arrestin 1 translocation to CB2 (CB2 [3]; mock (no GRK)): 63.07 (4.10) ΔBRET.s
Span, β-arrestin 2 translocation, CB2 D356A/D359A (CB2 D356A/D359A [4]; coexpression of GRK2): 161.84 (5.06) ΔBRET.s
Span, β-arrestin 2 translocation, CB2 D356A/D359A (CB2 D356A/D359A [4]; coexpression of GRK3): 188.04 (8.90) ΔBRET.s
Span, β-arrestin 2 translocation, CB2 D356A/D359A (CB2 D356A/D359A [4]; mock): 170.18 (6.70)^◊ ΔBRET.s
reduction in efficacy of β-arrestin 2 translocation versus wild-type CB2 (CB2 D356A/D359A [4]; mock): 24%
attenuation of G protein dissociation by addition of β-arrestin 2 (Wild-type CB2; 1-μM CP55940): over 50%
G protein dissociation at 1 μM CP55940 (Wild-type CB2; HEK 293 cells, + GRK3): −226.64 (5.63) ΔBRET.s
G protein dissociation at 1 μM CP55940 (Wild-type CB2; HEK 293 cells, + β-arrestin 2): −97.47 (3.67) ΔBRET.s
G protein dissociation at 1 μM CP55940, % mock (Wild-type CB2; HEK 293 cells, + β-arrestin 2): 45.28 (2.15) % mock
G protein dissociation at 1 μM CP55940 (Wild-type CB2; HEK 293 cells, + β-arrestin 2 + GRK3): −91.65 (4.04) ΔBRET.s
Span, G protein dissociation (Wild-type CB2; HEK 293 cells, mock): −216.50 (8.58) ΔBRET.s
Span, β-arrestin 2 translocation to CB2 (CB2 [5]; coexpression of GRK1, Table 2): 183.2 (11.32) ΔBRET.s
Span, β-arrestin 2 translocation to CB2 (CB2 [5]; coexpression of GRK2, Table 2): 164.3 (16.29) ^* ΔBRET.s
Span, β-arrestin 2 translocation, wild-type CB2 (CB2 [5]; coexpression of GRK2, Table 3 (mutant experiments)): 174.54 (11.90) ^* ΔBRET.s
Span, β-arrestin 2 translocation to CB2 (CB2 [5]; coexpression of GRK3, Table 2): 155.0 (9.91) ^* ΔBRET.s
Span, β-arrestin 2 translocation, wild-type CB2 (CB2 [5]; coexpression of GRK3, Table 3 (mutant experiments)): 210.00 (2.53) ^* ΔBRET.s
Span, β-arrestin 2 translocation to CB2 (CB2 [5]; coexpression of GRK4, Table 2): 176.9 (8.00) ΔBRET.s
Span, β-arrestin 2 translocation to CB2 (CB2 [5]; coexpression of GRK5, Table 2): 156.0 (6.71) ^* ΔBRET.s
Span, β-arrestin 2 translocation to CB2 (CB2 [5]; coexpression of GRK6, Table 2): 160.6 (8.71) ΔBRET.s
Span, β-arrestin 2 translocation to CB2 (CB2 [5]; mock (no GRK), Table 2): 190.2 (12.38) ΔBRET.s
Span, β-arrestin 2 translocation, wild-type CB2 (CB2 [5]; mock, Table 3 (mutant experiments)): 222.91 (6.17) ΔBRET.s
lowering of efficacy of β-arrestin 2 translocation by GRK coexpression (CB2 [5]): 10–20%
Span, β-arrestin 2 translocation, CB2 D351A/D354A/D356A/D359A ([6]; coexpression of GRK2): 194.18 (13.37) ^* ΔBRET.s
Span, β-arrestin 2 translocation, CB2 D351A/D354A/D356A/D359A ([6]; coexpression of GRK3): 180.16 (13.23) ^* ΔBRET.s
Span, β-arrestin 2 translocation, CB2 D351A/D354A/D356A/D359A ([6]; mock): 142.57 (8.39)^◊ ΔBRET.s
increase of β-arrestin 2 translocation response versus mock ([6]; coexpression of GRK2): 36%
increase of β-arrestin 2 translocation response versus mock ([6]; coexpression of GRK3): 26%
reduction of β-arrestin 2 translocation response versus wild-type CB2 ([6]; mock): 36%
attenuation of G protein dissociation by addition of β-arrestin 2 (CB2 D351A/D354A [7]; 1-μM CP55940): over 50%
G protein dissociation at 1 μM CP55940 (CB2 D351A/D354A [7]; HEK 293 cells, + β-arrestin 2): −97.62 (4.27) ΔBRET.s
G protein dissociation at 1 μM CP55940, % mock (CB2 D351A/D354A [7]; HEK 293 cells, + β-arrestin 2): 47.86 (1.69) % mock
Span, G protein dissociation (CB2 D351A/D354A [7]; HEK 293 cells, mock): −204.02 (5.54) ΔBRET.s
Span, β-arrestin 2 translocation, CB2 D351A/D354A (CB2 D351A/D354A [8]; coexpression of GRK2): 147.34 (2.60) ^* ΔBRET.s
Span, β-arrestin 2 translocation, CB2 D351A/D354A (CB2 D351A/D354A [8]; coexpression of GRK3): 147.06 (10.88) ΔBRET.s
Span, β-arrestin 2 translocation, CB2 D351A/D354A (CB2 D351A/D354A [8]; mock): 132.61 (6.99)^◊ ΔBRET.s
reduction in efficacy of β-arrestin 2 translocation versus wild-type CB2 (CB2 D351A/D354A [8]; mock): 41%

CCCCC/C=C\C/C=C\C/C=C\C/C=C\CCCC(=O)OC(CO)CO [2-AG, 2-Arachidonoylglycerol]
Span, β-arrestin 1 translocation to CB2 (CB2 [3]; coexpression of GRK1): 83.57 (2.82) ^* ΔBRET.s
Span, β-arrestin 1 translocation to CB2 (CB2 [3]; coexpression of GRK2): 71.73 (3.39) ^* ΔBRET.s
Span, β-arrestin 1 translocation to CB2 (CB2 [3]; coexpression of GRK3): 68.57 (2.99) ^* ΔBRET.s
Span, β-arrestin 1 translocation to CB2 (CB2 [3]; coexpression of GRK4): 62.00 (2.72) ΔBRET.s
Span, β-arrestin 1 translocation to CB2 (CB2 [3]; coexpression of GRK5): 65.96 (1.69) ^* ΔBRET.s
Span, β-arrestin 1 translocation to CB2 (CB2 [3]; coexpression of GRK6): 74.27 (4.00) ^* ΔBRET.s
Span, β-arrestin 1 translocation to CB2 (CB2 [3]; mock (no GRK)): 56.14 (1.52) ΔBRET.s
Span, β-arrestin 2 translocation to CB2 (CB2 [5]; coexpression of GRK1, Table 2): 198.6 (8.08) ΔBRET.s
Span, β-arrestin 2 translocation to CB2 (CB2 [5]; coexpression of GRK2, Table 2): 165.5 (10.92) ^* ΔBRET.s
Span, β-arrestin 2 translocation to CB2 (CB2 [5]; coexpression of GRK3, Table 2): 164.7 (9.83) ^* ΔBRET.s
Span, β-arrestin 2 translocation to CB2 (CB2 [5]; coexpression of GRK4, Table 2): 191.3 (6.31) ΔBRET.s
Span, β-arrestin 2 translocation to CB2 (CB2 [5]; coexpression of GRK5, Table 2): 157.1 (4.07) ^* ΔBRET.s
Span, β-arrestin 2 translocation to CB2 (CB2 [5]; coexpression of GRK6, Table 2): 158.6 (6.39) ^* ΔBRET.s
Span, β-arrestin 2 translocation to CB2 (CB2 [5]; mock (no GRK), Table 2): 204.9 (14.67) ΔBRET.s
lowering of efficacy of β-arrestin 2 translocation by GRK coexpression (CB2 [5]): 10–20%
pEC50 (CB2 [9]; coexpression of GRK1): 5.49
pEC50 (CB2 [9]; coexpression of GRK2): 5.64
pEC50 (CB2 [9]; coexpression of GRK3): 5.70
pEC50 (CB2 [9]; coexpression of GRK4): 5.54
pEC50 (CB2 [9]; coexpression of GRK5): 5.44
pEC50 (CB2 [9]; coexpression of GRK6): 5.48
pEC50 (CB2 [9]; mock (no GRK)): 5.45
pEC50 (CB2 [10]): 5.64

From article PMC12591375 (British journal of pharmacology, 2022)
